The results in this text go back to paper PMC8739753 (ACS catalysis, 2021).

Broadly, the MIC is the lowest concentration that inhibits growth of the organism. The low end stands for inhibition by little substance, the high end for a need for much substance. Usually Kd stands for the equilibrium constant for the complex coming apart. One may read the Km as the substrate concentration at which the rate is half of its maximum. For orientation: kcat means the maximal rate divided by the concentration of active sites. A word on the kcat/Km: it is the turnover number divided by the Michaelis constant.

One data set concerns S. pneumonia ATCC 49619. The data set can be described thus: Antimicrobial testing. The data set is classed as cell-based.
Data set [1] deals with vancomycin-resistant Enterococcus. The data set can be described thus: Antimicrobial testing. The data set is classed as cell-based. Conditions: for MIC: Enterococcus.
In the next data set the test system is B. anthracis 34f2. Format: cell-based. The settings on record: comparable to commercial antibiotic erythromycin.
The test system of the next data set is E. coli TolC. The data set is classed as cell-based.
The target in another data set is TamL enzyme (Streptomyces sp. 307-9, UniProt D3Y1I2). The data set can be described thus: Isothermal titration calorimetry with TamL.
In data set [2] the target is TamI WT and mutants. The data set can be described thus: Substrate-induced heme spin shift binding, several TamI P450s.
The subject of data set [3] is TamI WT and mutants. Conditions: range over WT and all variants tested.
Data set [4] has as its system TamI WT. The data set can be described thus: Total turnover number, TamI WT. The settings on record: compound as substrate.
The target in data set [5] is TamI WT. In words: Substrate-induced heme spin shift binding, TamI WT. Conditions: TamI WT (parent enzyme).
The subject of data set [6] is CC1=CC[C@H]2O[C@]1(C)O[C@H]([C@H](C)/C=C(C)/C=C/C(O)=C1/C(=O)CNC1=O)[C@H]2C. In words: purified protein, by the assay type.
A further data set deals with TamI biocatalysts. The data set can be described thus: In vitro analytical enzymatic reactions with TamI biocatalysts. Conditions: compound as substrate. The data set is classed as biochemical, Streptomyces sp. 307-9.
Substrate in data set [7]: CC(/C=C/C(O)=C1/C(=O)CNC1=O)=C\[C@@H](C)[C@H]1O[C@@]2(C)O[C@H](C(=O)[C@@H]3O[C@@]32C)[C@@H]1C
The data set can be described thus: purified protein, by the assay type. The settings on record: other: compound as substrate; P450 TamI WT.

Substrate in data set [8]: CC1=CC(=O)[C@H]2O[C@]1(C)O[C@H]([C@H](C)/C=C(C)/C=C/C(O)=C1/C(=O)CNC1=O)[C@H]2C
In words: purified protein, by the assay type. Conditions: other: compound as substrate; P450 TamI WT.

Substrate in data set [9]: CC(C=CC(O)=C1C(=O)CNC1=O)=CC(C)C1OC2(C)OC(C(O)C=C2C)C1C
The data set can be described thus: purified protein, by the assay type. The settings on record: other: compound as substrate; P450 TamI WT.

≈ marks a conversion by molar mass, not a printed value. Where “and” joins values, the source holds several entries; their conditions need not be identical. Equal entries are not always repeated.

For the molecule `O=C(O)c1cn(C2CC2)c2cc(N3CCNCC3)c(F)cc2c1=O` [ciprofloxacin, reference compound], the minimum inhibitory concentration (MIC) was 1.56 µM (≈ 0.517 µg/mL) against S. pneumonia ATCC 49619 and > 100 µM in data set [1].
Turning to `CC1=CC[C@H]2O[C@]1(C)O[C@H]([C@H](C)/C=C(C)/C=C/C(O)=C1/C(=O)CNC1=O)[C@H]2C` [compound 1, tirandamycin C], in the data set with S. pneumonia ATCC 49619, the minimum inhibitory concentration (MIC) stood at 12.5 µM (≈ 4.84 µg/mL) and the “activity against S. pneumonia ATCC 49619 (in words)” value is reported as “enhanced activity”. The “activity against B. anthracis 34f2 (in words)” value in the data set on B. anthracis 34f2 is listed as “strong activity”. Further, in the data set on E. coli TolC, the “activity against E. coli TolC (in words)” value is on record as “relatively weak activity”. In [1], this molecule returned an MIC of 25 µM (≈ 9.69 µg/mL).
As to `CC(C=CC(O)=C1C(=O)CNC1=O)=CC(C)C1OC2(C)OC(C(O)C=C2C)C1C` (stereo not drawn) [compound 2, tirandamycin E], the minimum inhibitory concentration (MIC) (against S. pneumonia ATCC 49619; in data set [1]) was > 100 µM throughout. Besides, binding on TamL enzyme was characterised by a dissociation constant (Kd) of 2260 nM. The spin shift result on TamI WT and mutants [2] (the other P450s (than L101A_L295I) including the parent enzyme) is given as “no spin shift was observed”.
Consider `CC1=CC(=O)[C@H]2O[C@]1(C)O[C@H]([C@H](C)/C=C(C)/C=C/C(O)=C1/C(=O)CNC1=O)[C@H]2C` [compound 3, tirandamycin D], for which, in the data set on S. pneumonia ATCC 49619, the lowest concentration to inhibit growth (MIC) was 12.5 µM (≈ 5.02 µg/mL) and the “activity against S. pneumonia ATCC 49619 (in words)” value was “enhanced activity”. Further, the “activity against B. anthracis 34f2 (in words)” value in the data set on B. anthracis 34f2 is given as “strong activity”. Besides, the “TTN (mol substrate consumed/mol P450)” value in the data set on TamI WT and mutants [3] is reported as 313–340. Further, the minimal inhibitory concentration (MIC) in data set [1] was > 100 µM. Further, the Kd on TamI WT and mutants [2] (heme spin shift, range over WT and all variants tested) is 6.89 to 8.32 µM.
Regarding `CC(/C=C/C(O)=C1/C(=O)CNC1=O)=C\[C@@H](C)[C@H]1O[C@@]2(C)O[C@H](C(=O)[C@@H]3O[C@@]32C)[C@@H]1C` [compound 4, Tirandamycin A], in the data set with S. pneumonia ATCC 49619, inhibition of growth (MIC) required 25 µM (≈ 10.4 µg/mL). Moreover, the “TTN (mol substrate consumed/mol P450)” value with TamI WT [4] is given as 143. Also, in [1], the “activity against VRE (in words)” value is on record as “strongest activity” and the MIC amounted to 6.25 µM (≈ 2.61 µg/mL). Besides, the Kd entry at TamI WT [5] is “no shift observed”.
Take `CC[C@H]1OC(=O)[C@H](C)[C@@H](O[C@H]2C[C@@](C)(OC)[C@@H](O)[C@H](C)O2)[C@H](C)[C@@H](O[C@@H]2O[C@H](C)C[C@H](N(C)C)[C@H]2O)[C@](C)(O)C[C@@H](C)C(=O)[C@H](C)[C@@H](O)[C@]1(C)O` [erythromycin, reference compound]: the MIC against S. pneumonia ATCC 49619 was 0.195 µM (≈ 0.143 µg/mL); in data set [1] it was 3.13 µM (≈ 2.3 µg/mL).
With `CNC(=O)[C@@H](C)[C@H]1C(=O)/C(=C(O)/C=C/C(C)=C/[C@@H](C)[C@H]2O[C@@]3(C)O[C@H](C=C[C@@]34CO4)[C@@H]2C)C(=O)N1[C@@H]1CC[C@H](O)[C@H](C)O1` [streptolydigin, reference compound], the MIC (against S. pneumonia ATCC 49619; in data set [1]) was > 100 µM in each case.
On to P450 TamI WT (Streptomyces sp. 307-9), for which, in data set [6], the Km worked out at 16.0 ± 2.6 µM, the kcat turned out to be 0.497 ± 0.0317 s⁻¹ and the kcat/Km came to 31200 M⁻¹ s⁻¹.
As to tirandamycin O’ [compound 10], in the data set on TamI biocatalysts, the “oxidative activity / product formation with TamI biocatalysts” value is recorded as “failed to yield products”.

B1: P450 TamI WT (Streptomyces sp. 307-9) (protein)
chain: MPMLQDSVPLELDDAFMQDPHSVYARLNAEGSAHRVMMPPGVPVCGGLPVWLITGYEEVRSALADPRLSTDLNRTDRLFAQNEPDRNKRGAFSSALATHMLHSDPPDHTRLRKLVNKAFTSRAIEKLRPEIEQITGELLAALPDEDPVDLLDAFAFPLPIRVICLLLGVPLEEQENFKSWSKALVSGDSPAATAAASTAMIEYLGDLIERKRRTPTDDVLAALVSARDVDDRLTETELVSMAFLLFIGGHETTVNTLGNGTLHLMRNLDQWEALRQDRSLLPGAVEEFLRLESPLKHATFRCATEDLRIGDTAIPAGDFVLLALASANRDPERFGDPHTLDVRRPTGGHVAFGHGIHYCLGAPLARMEAQVAFGVLLDTFPAMRLAVDPEDMRWRTSTLIRGLHSLPVRLNRP
B1: in data set [7], the Michaelis constant (Km) is 8.2 ± 1.0 µM; the kcat was found to be 0.0006 ± 1.67e-05 s⁻¹; the kcat/Km is 0.004 µM⁻¹ min⁻¹ and 0.0044 µM⁻¹ min⁻¹. Also, in data set [8], the Michaelis constant (Km) is 36.5 ± 7.1 µM, the kcat was 0.113 ± 0.00833 s⁻¹ and the specificity constant (kcat/Km) was 3170 M⁻¹ s⁻¹. In data set [9], the Km stood at 108.5 ± 25.9 µM, the kcat worked out at 0.000667 ± 0.000167 s⁻¹ and the kcat/Km was found to be 5 M⁻¹ s⁻¹.
